Reference: patent US6358885B1, “Substituted phenylheterocyclic herbicides” (Mississippi State University, priority 1992, dated 2002)

Columns and labels:
giant foxtail [1] = assay: Test B preemergence/postemergence greenhouse plant response rating 0 to 10; assay type: in vivo, Setaria faberii; conditions: 0 to 10 scale
Summary of the method: (§1)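 Planted seeds are treated preemergence with compound dissolved in a non-phytotoxic solvent, while postemergence applications go onto plants of two to eighteen cm. Plants stay in the greenhouse twelve to sixteen days and are then rated visually relative to controls.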

chickweed = assay: Test C preemergence/postemergence greenhouse plant response rating 0 to 100; assay type: in vivo, Stellaria media; conditions: PREEMERGENCE
Summary of the method: (§2)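 Compounds in non-phytotoxic solvent applied preemergence to sandy loam one day after planting, postemergence at the 1–4 leaf stage, or to ~2.5 cm floodwater over silt loam.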

cotton = assay: as above; assay type: in vivo, Gossypium hirsutum; conditions: for Plant response rating, Cotton: 125 g/ha, 0 to 100 scale
Summary of the method: as §2

soybean = assay: as above; assay type: in vivo, Glycine max; conditions: for Plant response rating, Soybean: 125 g/ha, 0 to 100 scale
Summary of the method: as §2

crabgrass = assay: Test B preemergence/postemergence greenhouse plant response rating 0 to 10; assay type: in vivo, Digitaria spp.; conditions: 0 to 10 scale
Summary of the method: as §1

rape = assay: Test C preemergence/postemergence greenhouse plant response rating 0 to 100; assay type: in vivo, Brassica napus; conditions: for Plant response rating, Rape: 125 g/ha, 0 to 100 scale
Summary of the method: as §2

wild oat [2] = assay: Test B preemergence/postemergence greenhouse plant response rating 0 to 10; assay type: in vivo, Avena fatua; conditions: 0 to 10 scale
Summary of the method: as §1

lambsquarters = assay: as above; assay type: in vivo, Chenopodium album; conditions: 0 to 10 scale
Summary of the method: as §1

wild oat [3] = assay: Test C preemergence/postemergence greenhouse plant response rating 0 to 100; assay type: in vivo, Avena fatua; conditions: for Plant response rating, Wild oat: 125 g/ha, 0 to 100 scale
Summary of the method: as §2

giant foxtail [4] = assay: as above; assay type: in vivo, Setaria faberii; conditions: for Plant response rating, Giant foxtail: 125 g/ha, 0 to 100 scale
Summary of the method: as §2

rice = assay: Test C flood test plant response rating 0 to 100; assay type: in vivo, Oryza sativa
Summary of the method: as §2

wild buckwheat = assay: Test B preemergence/postemergence greenhouse plant response rating 0 to 10; assay type: in vivo, Polygonum convolvulus; conditions: 0 to 10 scale
Summary of the method: as §1

downy brome = assay: Test C preemergence/postemergence greenhouse plant response rating 0 to 100; assay type: in vivo, Bromus tectorum; conditions: for Plant response rating Downy Brome: 125 g/ha, 0 to 100 scale
Summary of the method: as §2

barnyardgrass [5] = assay: Test C flood test plant response rating 0 to 100; assay type: in vivo, Echinochloa crus-galli
Summary of the method: as §2

purple nutsedge = assay: Test B preemergence/postemergence greenhouse plant response rating 0 to 10; assay type: in vivo, Cyperus rotundus; conditions: 0 to 10 scale
Summary of the method: as §1

cocklebur = assay: as above; assay type: in vivo, Xanthium pensylvanicum; conditions: 0 to 10 scale
Summary of the method: as §1

umbrella sedge = assay: Test C flood test plant response rating 0 to 100; assay type: in vivo, Cyperus difformis
Summary of the method: as §2

barnyardgrass [6] = assay: Test B preemergence/postemergence greenhouse plant response rating 0 to 10; assay type: in vivo, Echinochloa crus-galli; conditions: 0 to 10 scale
Summary of the method: as §1

[7] = POSTEMERGENCE section, flood test, Rate 2 g/ha
[8] = Rate 8 g/ha, under POSTEMERGENCE head (flood test species)
[9] = Rate 31 g/ha, under POSTEMERGENCE head (flood test species)
[10] = flood test species listed under POSTEMERGENCE, 125 g/ha, 0 to 100 scale

## Fc1cc(Cl)ccc1-c1nn2c(c1Br)CCCC2 [Compound 52]
Giant foxtail [1]; POSTEMERGENCE, Rate 50 g/ha
  Plant response rating, Giant foxtail: 5
Giant foxtail [1]; PREEMERGENCE, Rate 50 g/ha
  Plant response rating, Giant foxtail: 9
Giant foxtail [1]; Rate 200 g/ha, POSTEMERGENCE
  Plant response rating, Giant foxtail: 7
Giant foxtail [1]; Rate 200 g/ha, PREEMERGENCE
  Plant response rating, Giant foxtail: 10
chickweed; 125 g/ha, 0 to 100 scale
  Plant response rating, Chickweed: 20
chickweed; Rate 2 g/ha
  Plant response rating (0 to 100), Chickweed: 0
chickweed; Rate 8 g/ha
  Plant response rating (0 to 100), Chickweed: 0
chickweed; Rate 31 g/ha
  Plant response rating (0 to 100), Chickweed: 0
cotton; POSTEMERGENCE
  Plant response rating, Cotton: 100
cotton; POSTEMERGENCE, Rate 2 g/ha
  Plant response rating (0 to 100), Cotton: 70
cotton; PREEMERGENCE
  Plant response rating, Cotton: 0
cotton; PREEMERGENCE, Rate 2 g/ha
  Plant response rating (0 to 100), Cotton: 0
cotton; Rate 8 g/ha, POSTEMERGENCE
  Plant response rating (0 to 100), Cotton: 95
cotton; Rate 8 g/ha, PREEMERGENCE
  Plant response rating (0 to 100), Cotton: 0
cotton; Rate 31 g/ha, POSTEMERGENCE
  Plant response rating (0 to 100), Cotton: 95
cotton; Rate 31 g/ha, PREEMERGENCE
  Plant response rating (0 to 100), Cotton: 0
soybean; POSTEMERGENCE
  Plant response rating, Soybean: 70
soybean; POSTEMERGENCE, Rate 2 g/ha
  Plant response rating (0 to 100), Soybean: 10
soybean; PREEMERGENCE
  Plant response rating, Soybean: 0
soybean; PREEMERGENCE, Rate 2 g/ha
  Plant response rating (0 to 100), Soybean: 0
soybean; Rate 8 g/ha, POSTEMERGENCE
  Plant response rating (0 to 100), Soybean: 30
soybean; Rate 8 g/ha, PREEMERGENCE
  Plant response rating (0 to 100), Soybean: 0
soybean; Rate 31 g/ha, POSTEMERGENCE
  Plant response rating (0 to 100), Soybean: 40
soybean; Rate 31 g/ha, PREEMERGENCE
  Plant response rating (0 to 100), Soybean: 0
crabgrass; POSTEMERGENCE, Rate 50 g/ha
  Plant response rating, Crabgrass: 6
crabgrass; POSTEMERGENCE, Rate 200 g/ha
  Plant response rating, Crabgrass: 7
crabgrass; PREEMERGENCE, Rate 50 g/ha
  Plant response rating, Crabgrass: 2
crabgrass; Rate 200 g/ha, PREEMERGENCE
  Plant response rating, Crabgrass: 10
rape; POSTEMERGENCE
  Plant response rating, Rape: 100
rape; POSTEMERGENCE, Rate 2 g/ha
  Plant response rating (0 to 100), Rape: 10
rape; PREEMERGENCE
  Plant response rating, Rape: 60
rape; PREEMERGENCE, Rate 2 g/ha
  Plant response rating (0 to 100), Rape: 0
rape; Rate 8 g/ha, POSTEMERGENCE
  Plant response rating (0 to 100), Rape: 40
rape; Rate 8 g/ha, PREEMERGENCE
  Plant response rating (0 to 100), Rape: 0
rape; Rate 31 g/ha, POSTEMERGENCE
  Plant response rating (0 to 100), Rape: 70
rape; Rate 31 g/ha, PREEMERGENCE
  Plant response rating (0 to 100), Rape: 10
Wild oat [2]; POSTEMERGENCE, Rate 50 g/ha
  Plant response rating, Wild oat: 5
Wild oat [2]; PREEMERGENCE, Rate 50 g/ha
  Plant response rating, Wild oat: 4
Wild oat [2]; Rate 200 g/ha, POSTEMERGENCE
  Plant response rating, Wild oat: 8
lambsquarters; POSTEMERGENCE, Rate 50 g/ha
  Plant response rating, Lambsquarter: 9
lambsquarters; PREEMERGENCE, Rate 50 g/ha
  Plant response rating, Lambsquarter: 10
lambsquarters; Rate 200 g/ha, POSTEMERGENCE
  Plant response rating, Lambsquarter: 10
lambsquarters; Rate 200 g/ha, PREEMERGENCE
  Plant response rating, Lambsquarter: 10
Wild oat [3]; POSTEMERGENCE
  Plant response rating, Wild oat: 60
Wild oat [3]; POSTEMERGENCE, Rate 2 g/ha
  Plant response rating (0 to 100), Wild oat: 10
Wild oat [3]; PREEMERGENCE
  Plant response rating, Wild oat: 20
Wild oat [3]; PREEMERGENCE, Rate 2 g/ha
  Plant response rating (0 to 100), Wild oat: 0
Wild oat [3]; Rate 8 g/ha, POSTEMERGENCE
  Plant response rating (0 to 100), Wild oat: 20
Wild oat [3]; Rate 8 g/ha, PREEMERGENCE
  Plant response rating (0 to 100), Wild oat: 0
Wild oat [3]; Rate 31 g/ha, POSTEMERGENCE
  Plant response rating (0 to 100), Wild oat: 30
Wild oat [3]; Rate 31 g/ha, PREEMERGENCE
  Plant response rating (0 to 100), Wild oat: 0
Giant foxtail [4]; POSTEMERGENCE
  Plant response rating, Giant foxtail: 85
Giant foxtail [4]; POSTEMERGENCE, Rate 2 g/ha
  Plant response rating (0 to 100), Giant foxtail: 20
Giant foxtail [4]; PREEMERGENCE
  Plant response rating, Giant foxtail: 90
Giant foxtail [4]; PREEMERGENCE, Rate 2 g/ha
  Plant response rating (0 to 100), Giant foxtail: 0
Giant foxtail [4]; Rate 8 g/ha, POSTEMERGENCE
  Plant response rating (0 to 100), Giant foxtail: 40
Giant foxtail [4]; Rate 8 g/ha, PREEMERGENCE
  Plant response rating (0 to 100), Giant foxtail: 10
Giant foxtail [4]; Rate 31 g/ha, POSTEMERGENCE
  Plant response rating (0 to 100), Giant foxtail: 50
Giant foxtail [4]; Rate 31 g/ha, PREEMERGENCE
  Plant response rating (0 to 100), Giant foxtail: 30
rice; [7]
  Plant response rating (0 to 100), Rice Japonica: 0
rice; [8]
  Plant response rating (0 to 100), Rice Japonica: 20
rice; [9]
  Plant response rating (0 to 100), Rice Japonica: 45
rice; [10]
  Plant response rating Rice Japonica: 60
Wild buckwheat; POSTEMERGENCE, Rate 50 g/ha
  Plant response rating, Wild buckwheat: 10
Wild buckwheat; PREEMERGENCE, Rate 50 g/ha
  Plant response rating, Wild buckwheat: 7
Wild buckwheat; Rate 200 g/ha, POSTEMERGENCE
  Plant response rating, Wild buckwheat: 10
Wild buckwheat; Rate 200 g/ha, PREEMERGENCE
  Plant response rating, Wild buckwheat: 10
Downy brome; POSTEMERGENCE
  Plant response rating Downy Brome: 90
Downy brome; POSTEMERGENCE, Rate 2 g/ha
  Plant response rating (0 to 100), Downy Brome: 10
Downy brome; PREEMERGENCE
  Plant response rating Downy Brome: 50
Downy brome; PREEMERGENCE, Rate 2 g/ha
  Plant response rating (0 to 100), Downy Brome: 0
Downy brome; Rate 8 g/ha, POSTEMERGENCE
  Plant response rating (0 to 100), Downy Brome: 20
Downy brome; Rate 8 g/ha, PREEMERGENCE
  Plant response rating (0 to 100), Downy Brome: 0
Downy brome; Rate 31 g/ha, POSTEMERGENCE
  Plant response rating (0 to 100), Downy Brome: 50
Downy brome; Rate 31 g/ha, PREEMERGENCE
  Plant response rating (0 to 100), Downy Brome: 0
Barnyardgrass [5]; [7]
  Plant response rating (0 to 100), Barnyardgrass 2: 25
Barnyardgrass [5]; [8]
  Plant response rating (0 to 100), Barnyardgrass 2: 95
Barnyardgrass [5]; [9]
  Plant response rating (0 to 100), Barnyardgrass 2: 100
Barnyardgrass [5]; [10]
  Plant response rating Barnyardgrass 2: 100
Purple nutsedge; POSTEMERGENCE, Rate 50 g/ha
  Plant response rating, Nutsedge: 3
Purple nutsedge; PREEMERGENCE, Rate 50 g/ha
  Plant response rating, Nutsedge: 0
Purple nutsedge; Rate 200 g/ha, POSTEMERGENCE
  Plant response rating, Nutsedge: 5
Purple nutsedge; Rate 200 g/ha, PREEMERGENCE
  Plant response rating, Nutsedge: 0
cocklebur; POSTEMERGENCE, Rate 50 g/ha
  Plant response rating, Cocklebur: 6
cocklebur; POSTEMERGENCE, Rate 200 g/ha
  Plant response rating, Cocklebur: 8
cocklebur; PREEMERGENCE, Rate 50 g/ha
  Plant response rating, Cocklebur: 0
cocklebur; Rate 200 g/ha, PREEMERGENCE
  Plant response rating, Cocklebur: 0
Umbrella sedge; [7]
  Plant response rating (0 to 100), Umbrella sedge: 10
Umbrella sedge; [8]
  Plant response rating (0 to 100), Umbrella sedge: 20
Umbrella sedge; [9]
  Plant response rating (0 to 100), Umbrella sedge: 25
Umbrella sedge; [10]
  Plant response rating Umbrella sedge: 80
Barnyardgrass [6]; POSTEMERGENCE, Rate 50 g/ha
  Plant response rating, Barnyardgrass: 9
Barnyardgrass [6]; POSTEMERGENCE, Rate 200 g/ha
  Plant response rating, Barnyardgrass: 9
Barnyardgrass [6]; PREEMERGENCE, Rate 50 g/ha
  Plant response rating, Barnyardgrass: 5
Barnyardgrass [6]; Rate 200 g/ha, PREEMERGENCE
  Plant response rating, Barnyardgrass: 9
